Source: the NIST ThermoML archive (doi:10.1021/acs.jced.8b00372)

Experiment: mn = molality of the nth substance listed, in mol/kg
Settings: for electrical conductivity: 100 kPa, Liquid, Frequency=0.002 MHz, Alternating current cell with electrodes; for surface tension liquid-gas: Ring tensiometer

CCCCCCCCCCCC[N+](C)(C)C.[Br-] [dodecyltrimethylammonium bromide] + O
Settings	electrical conductivity, 303.15 K [S/m]	electrical conductivity, 313.15 K [S/m]	electrical conductivity, 323.15 K [S/m]	surface tension liquid-gas, 313.15 K [mN/m]
m1 = 6e-06	–	–	–	65.2
m1 = 2.5e-05	–	–	–	63.6
m1 = 5.6e-05	–	–	–	62.5
m1 = 0.000135	–	–	–	61.3
m1 = 0.000263	–	–	–	58.3
m1 = 0.000739	–	–	–	54.7
m1 = 0.001308	–	–	–	51.3
m1 = 0.00178	0.0194	0.0234	0.0282	–
m1 = 0.00353	0.0374	0.0467	0.0547	–
m1 = 0.004064	–	–	–	46
m1 = 0.00524	0.0553	0.0668	0.0802	–
m1 = 0.006048	–	–	–	43.3
m1 = 0.00692	0.0727	0.0871	0.105	–
m1 = 0.008433	–	–	–	39.5
m1 = 0.00857	0.0893	0.107	0.128	–
m1 = 0.01019	0.106	0.126	0.152	–
m1 = 0.01178	0.121	0.145	0.174	–
m1 = 0.01333	0.136	0.163	0.196	–
m1 = 0.01486	0.149	0.18	0.216	–
m1 = 0.01636	0.157	0.193	0.234	–
m1 = 0.01784	0.162	0.201	–	–
m1 = 0.01789	–	–	0.247	–
m1 = 0.01929	0.166	0.208	0.258	–
m1 = 0.01941	–	–	–	36.2
m1 = 0.02071	0.17	0.213	0.265	–
m1 = 0.02211	0.174	0.219	0.272	–
m1 = 0.02348	0.178	0.224	0.279	–
m1 = 0.02483	0.181	0.229	0.285	–
m1 = 0.02615	0.185	0.234	0.292	–
m1 = 0.02746	0.189	0.238	0.297	–
m1 = 0.02874	0.192	0.243	0.304	–
m1 = 0.03	0.195	0.247	0.31	–
m1 = 0.0309	–	–	–	37.9
m1 = 0.0456	–	–	–	38.3
m1 = 0.07211	–	–	–	38.8
m1 = 0.1062	–	–	–	38.9
